Measurements as given in patent US10793557B2, “Sting agonist compounds” (Merck Sharp & Dohme Corp., priority 2018, dated 2020).

Tests used:
[1] = target: T1, full-length HAQ STING (Homo sapiens, UniProt Q86WV6, G230A/H232R/R293Q/R71H); assay: 3H-cGAMP filtration binding assay (HAQ STING); details: competition with tritiated cGAMP, HAQ STING membrane
T1 construct: AviTag (after GG linker) (C); HRV3C cleavage site (after GS linker) (C); HIS8 (C); made in house; host or cells: Trichoplusia ni (Hi-Five) insect cells infected with baculovirus (virus generated and amplified in Sf21 cells); used as a washed membrane preparation
T1 sequence (Q86WV6 with tags, fused parts or gaps R71H/G230A/H232R/R293Q): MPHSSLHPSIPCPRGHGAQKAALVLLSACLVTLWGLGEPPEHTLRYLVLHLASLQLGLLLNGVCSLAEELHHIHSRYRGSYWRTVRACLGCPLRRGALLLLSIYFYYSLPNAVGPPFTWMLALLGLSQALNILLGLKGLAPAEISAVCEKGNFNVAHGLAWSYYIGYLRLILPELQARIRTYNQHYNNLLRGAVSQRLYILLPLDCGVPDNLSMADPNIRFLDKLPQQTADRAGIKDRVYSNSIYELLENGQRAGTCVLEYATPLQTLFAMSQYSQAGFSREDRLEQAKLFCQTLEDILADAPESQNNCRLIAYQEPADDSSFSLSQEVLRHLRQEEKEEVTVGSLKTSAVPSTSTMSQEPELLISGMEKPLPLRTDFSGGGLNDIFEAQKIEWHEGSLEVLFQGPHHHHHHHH
Outline: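 Hi-Five (T. ni) membranes overexpressing the STING variant (2.2 ug/ml working) preincubated with compound 60 min at RT in PBS, then [3H]cGAMP (8 nM working stock) added for 60 min at RT. Bound radioactivity captured on GF/B filters and counted by scintillation; EC50 from 4-parameter fit of control-normalized activity.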

[2] = system: secretion of interferon-beta from THP1 cells; assay: IFN-β secretion in THP1 cell culture (5 h); format: cell-based; details: Homo sapiens, THP-1, 5 h, compound at 30 μM, 30 uM cGAMP = 100%, read-out: % Effect at 30 μM relative to 2′3′-cGAMP
Outline: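 Thawed THP1 cells (0.8×10^6/mL, RPMI with 0.5% FBS) exposed to compounds 1.5–30000 nM (0.3% DMSO) for 5 h at 37 °C. Supernatant IFN-β quantified by AlphaLISA. Percent effect normalised to 30 uM cGAMP and DMSO controls; EC50 from 4-parameter fit.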

[3] = target: T2, full-length WT STING (Homo sapiens, UniProt Q86WV6, H232R); assay: 3H-cGAMP filtration binding assay (WT STING); details: competition with tritiated cGAMP, WT STING membrane
T2 construct: AviTag (after gg linker) (C); HRV3C cleavage site (after gs linker) (C); HIS8 (C); made in house; host or cells: Trichoplusia ni (Hi-Five) insect cells infected with baculovirus (virus generated and amplified in Sf21 cells); used as a washed membrane preparation
T2 sequence (Q86WV6 with tags, fused parts or gaps H232R): as the sequence (Q86WV6 with tags, fused parts or gaps R71H/G230A/H232R/R293Q) above, with H71R, A230G, Q293R counted along it
Outline: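 Competitive filtration binding of [3H]cGAMP (16 nM working stock) to T. ni membranes overexpressing full-length WT human STING, 60 min at RT in PBS. Bound radioactivity counted after GF/B filtration; 10-point 1:3 titration, EC50 from 4-parameter fit after control normalisation.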

| Compound | EC50 [1] | activation at 30 µM [2] | EC50 [3] |
| --- | --- | --- | --- |
| COc1cc2sc(C(=O)C[C@H](C)C(=O)O)cc2cc1CCCOc1c(OC)cc2sc(C(=O)[C@@H]3CCC3C(=O)O)cc2c1F (stereo partly drawn) [Example 113, trans-2-(5-(3-(2-((S)-3-carboxybutanoyl)-6-methoxybenzo[b]thiophen-5-yl)propoxy)-4-fluoro-6-methoxybenzo[b]thiophene-2-carbonyl)cyclobutane carboxylic acid] | 2 nM | 93% | 23 nM |
| COc1cc2sc(C(=O)CCC(=O)O)cc2cc1CCCOc1cc2cc(C(=O)CCC(=O)O)sc2cc1OC [Example 44, 4-(5-(3-((2-(3-carboxypropanoyl)-6-methoxybenzo[b]thiophen-5-yl)oxy)propyl)-6-methoxybenzo[b]thiophen-2-yl)-4-oxobutanoic acid] | 14 nM | 108% | 64 nM |
| COc1cc2sc(C(=O)C[C@H](C)C(=O)O)cc2cc1OCCCCCOc1cc2cc(C(=O)C[C@H](C)C(=O)O)sc2cc1OC [Example 102, (2S,2′S)-4,4′-(5,5′-(pentane-1,5-diylbis(oxy))bis(6-methoxybenzo[b]thiophene-5,2-diyl))bis(2-methyl-4-oxobutanoic acid)] | 15 nM | 69% | 213 nM |
| COc1cc2sc(C(=O)CCC(=O)O)cc2cc1OCCCOc1cc2sc(C(=O)CCC(=O)O)cc2cc1OC [Example 126, 4-(5-(3-((2-(3-carboxypropanoyl)-5-methoxybenzo[b]thiophen-6-yl)oxy)propoxy)-6-methoxybenzo[b]thiophen-2-yl)-4-oxobutanoic acid] | 2 nM | 91% | 19 nM |
| COc1cc2cc(C(=O)C[C@H](C)C(=O)O)sc2cc1OCCCOc1c(OC)cc2sc(C(=O)C[C@H](C)C(=O)O)cc2c1F [Example 70, (S)-4-(6-(3-((2-((S)-3-carboxybutanoyl)-4-fluoro-6-methoxybenzo[b]thiophen-5-yl)oxy)propoxy)-5-methoxybenzo[b]thiophen-2-yl)-2-methyl-4-oxobutanoic acid] | 1 nM | 47% | 1 nM |
| COc1cc2sc(C(=O)CCC(=O)O)cc2cc1CCCOc1c(OC)cc2sc(C(=O)[C@@H]3C[C@H]3C(=O)O)cc2c1F (relative stereo) [Example 85, trans-2-(5-(3-(2-(3-carboxypropanoyl)-6-methoxybenzo[b]thiophen-5-yl)propoxy)-4-fluoro-6-methoxybenzo[b]thiophene-2-carbonyl)cyclopropane carboxylic acid] | 360 nM | 145% | 9010 nM |
| COc1cc2sc(C(=O)C[C@H](C)C(=O)O)cc2nc1OCCOc1c(OC)cc2sc(C(=O)CCC(=O)O)cc2c1F [Example 20, (S)-4-(5-(2-((2-(3-carboxypropanoyl)-4-fluoro-6-methoxybenzo[b]thiophen-5-yl)oxy)ethoxy)-6-methoxythieno[3,2-b]pyridin-2-yl)-2-methyl-4-oxobutanoic acid] | 7 nM | 63% | 24 nM |
| COc1cc2sc(C(=O)CCC(=O)O)cc2nc1OCCOc1c(OC)cc2sc(C(=O)CCC(=O)O)cc2c1F [Example 81, 4-(5-(2-((2-(3-carboxypropanoyl)-4-fluoro-6-methoxybenzo[b]thiophen-5-yl)oxy)ethoxy)-6-methoxythieno[3,2-b]pyridin-2-yl)-4-oxobutanoic acid] | 2 nM | 120% | 23 nM |
| COc1cc2sc(C[C@@H]3CC[C@H]3C(=O)O)cc2c(F)c1OCCCOc1c(OC)cc2sc(C(=O)C[C@H](C)C(=O)O)cc2c1F [Example 135, 2-((5-(3-((2-((S)-3-carboxybutanoyl)-4-fluoro-6-methoxybenzo[b]thiophen-5-yl)oxy)propoxy)-4-fluoro-6-methoxybenzo[b]thiophen-2-yl)methyl)cyclo-butanecarboxylic acid] | 1 nM | 100% | 5 nM |
